Test results as given in patent US11208386B2, “Inhibitors of protein arginine deiminases (PADs) and methods of preparation and use thereof” (University of Massachusetts, priority 2016, dated 2021).
pKi: −log10 of the molar value.

Experiments:
Format in all cases: biochemical
PAD2 = biological target: T1, PAD2 (Homo sapiens, UniProt Q9Y2J8); assay: Inactivation kinetics, PAD2; conditions: for kinact/KI: a: single kobs determined, b: from a linear fit, other footnotes: from kinact and KI; for Fold PAD2 Selectivity: kinact/KI relative to least inhibited isozyme (1.0); for pKi / kinact: PAD2, table footnote
T1 construct: made in house
How it was run: (§1)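 PAD1, 2 or 4 (2.0 μM) or PAD3 (5.0 μM) preincubated at 37 °C with varying inhibitor in 50 mM HEPES, 10 mM CaCl2, 2 mM DTT, pH 7.6. Timed aliquots assayed 15 min with 10 mM BAEE (BAA for PAD3); citrulline quantified by COLDER.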

PAD3 = biological target: T2, PAD3 (Homo sapiens, UniProt Q9ULW8); assay: Inactivation kinetics, PAD3; conditions: for kinact/KI: a: single kobs determined; for Fold PAD3 Selectivity: kinact/KI relative to least inhibited isozyme (1.0)
T2 construct: made in house
T2 sequence (Q9ULW8 1-664): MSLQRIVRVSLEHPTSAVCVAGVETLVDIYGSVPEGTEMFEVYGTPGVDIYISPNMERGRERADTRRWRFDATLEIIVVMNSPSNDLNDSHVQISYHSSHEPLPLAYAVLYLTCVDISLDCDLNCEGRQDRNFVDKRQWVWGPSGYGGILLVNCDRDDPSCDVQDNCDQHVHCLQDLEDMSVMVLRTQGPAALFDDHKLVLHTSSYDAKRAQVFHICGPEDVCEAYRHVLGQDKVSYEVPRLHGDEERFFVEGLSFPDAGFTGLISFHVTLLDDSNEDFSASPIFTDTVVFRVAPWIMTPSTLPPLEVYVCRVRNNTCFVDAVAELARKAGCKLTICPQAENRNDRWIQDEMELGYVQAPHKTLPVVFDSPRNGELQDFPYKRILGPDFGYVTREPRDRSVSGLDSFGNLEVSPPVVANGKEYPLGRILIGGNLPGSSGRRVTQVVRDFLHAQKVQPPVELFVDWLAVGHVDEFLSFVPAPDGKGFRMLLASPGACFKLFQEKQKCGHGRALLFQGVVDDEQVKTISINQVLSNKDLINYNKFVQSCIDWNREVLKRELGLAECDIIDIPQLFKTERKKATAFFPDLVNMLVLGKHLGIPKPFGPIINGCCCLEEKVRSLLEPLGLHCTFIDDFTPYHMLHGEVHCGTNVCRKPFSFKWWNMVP
How it was run: as §1

PAD4 = biological target: T3, PAD4 (Homo sapiens, UniProt Q9UM07); assay: Inactivation kinetics, PAD4; conditions: for kinact/KI: a: single kobs determined, b: from a linear fit; for Fold PAD4 Selectivity: kinact/KI relative to least inhibited isozyme (1.0)
T3 construct: made in house
How it was run: as §1

PAD1 = biological target: T4, PAD1 (Homo sapiens, UniProt Q9ULC6); assay: Inactivation kinetics, PAD1; conditions: for kinact/KI: a: single kobs determined, b: from a linear fit; for Fold PAD1 Selectivity: kinact/KI relative to least inhibited isozyme (1.0)
T4 construct: made in house
T4 sequence (Q9ULC6 1-663): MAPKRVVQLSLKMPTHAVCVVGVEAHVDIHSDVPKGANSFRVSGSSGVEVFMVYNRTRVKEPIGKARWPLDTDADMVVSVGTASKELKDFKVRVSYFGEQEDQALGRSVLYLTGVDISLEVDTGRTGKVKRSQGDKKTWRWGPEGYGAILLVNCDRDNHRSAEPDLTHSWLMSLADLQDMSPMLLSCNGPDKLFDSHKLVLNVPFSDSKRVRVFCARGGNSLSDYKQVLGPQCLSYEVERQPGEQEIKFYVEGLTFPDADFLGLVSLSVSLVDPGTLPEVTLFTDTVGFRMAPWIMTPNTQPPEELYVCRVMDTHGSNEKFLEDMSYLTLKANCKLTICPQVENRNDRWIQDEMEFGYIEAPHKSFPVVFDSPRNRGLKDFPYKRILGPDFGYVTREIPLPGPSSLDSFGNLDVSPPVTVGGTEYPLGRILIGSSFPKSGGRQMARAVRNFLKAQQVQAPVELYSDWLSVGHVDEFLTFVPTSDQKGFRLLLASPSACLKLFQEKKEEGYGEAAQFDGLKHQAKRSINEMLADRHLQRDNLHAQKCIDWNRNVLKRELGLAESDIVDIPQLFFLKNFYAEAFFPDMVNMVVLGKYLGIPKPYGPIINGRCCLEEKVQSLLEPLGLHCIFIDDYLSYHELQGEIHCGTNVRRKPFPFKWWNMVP
How it was run: as §1

T1 sequence (Q9Y2J8 whole entry): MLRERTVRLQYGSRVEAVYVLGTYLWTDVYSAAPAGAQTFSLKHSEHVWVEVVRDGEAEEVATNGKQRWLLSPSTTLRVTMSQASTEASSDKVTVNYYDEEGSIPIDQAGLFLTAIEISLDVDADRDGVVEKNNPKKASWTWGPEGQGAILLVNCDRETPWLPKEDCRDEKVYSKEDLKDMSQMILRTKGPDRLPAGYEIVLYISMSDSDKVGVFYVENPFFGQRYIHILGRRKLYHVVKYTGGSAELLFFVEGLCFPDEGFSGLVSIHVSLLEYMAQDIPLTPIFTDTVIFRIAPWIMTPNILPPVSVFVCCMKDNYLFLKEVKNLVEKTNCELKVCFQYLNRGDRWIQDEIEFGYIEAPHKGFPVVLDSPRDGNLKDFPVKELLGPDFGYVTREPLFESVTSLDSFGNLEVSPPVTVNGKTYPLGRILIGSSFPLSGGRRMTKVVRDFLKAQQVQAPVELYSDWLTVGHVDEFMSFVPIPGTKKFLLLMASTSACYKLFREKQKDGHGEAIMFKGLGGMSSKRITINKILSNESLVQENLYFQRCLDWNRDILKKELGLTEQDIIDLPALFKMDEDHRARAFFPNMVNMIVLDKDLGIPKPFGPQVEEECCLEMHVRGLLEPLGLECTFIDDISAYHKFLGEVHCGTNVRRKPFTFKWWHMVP
T3 sequence (Q9UM07 whole entry): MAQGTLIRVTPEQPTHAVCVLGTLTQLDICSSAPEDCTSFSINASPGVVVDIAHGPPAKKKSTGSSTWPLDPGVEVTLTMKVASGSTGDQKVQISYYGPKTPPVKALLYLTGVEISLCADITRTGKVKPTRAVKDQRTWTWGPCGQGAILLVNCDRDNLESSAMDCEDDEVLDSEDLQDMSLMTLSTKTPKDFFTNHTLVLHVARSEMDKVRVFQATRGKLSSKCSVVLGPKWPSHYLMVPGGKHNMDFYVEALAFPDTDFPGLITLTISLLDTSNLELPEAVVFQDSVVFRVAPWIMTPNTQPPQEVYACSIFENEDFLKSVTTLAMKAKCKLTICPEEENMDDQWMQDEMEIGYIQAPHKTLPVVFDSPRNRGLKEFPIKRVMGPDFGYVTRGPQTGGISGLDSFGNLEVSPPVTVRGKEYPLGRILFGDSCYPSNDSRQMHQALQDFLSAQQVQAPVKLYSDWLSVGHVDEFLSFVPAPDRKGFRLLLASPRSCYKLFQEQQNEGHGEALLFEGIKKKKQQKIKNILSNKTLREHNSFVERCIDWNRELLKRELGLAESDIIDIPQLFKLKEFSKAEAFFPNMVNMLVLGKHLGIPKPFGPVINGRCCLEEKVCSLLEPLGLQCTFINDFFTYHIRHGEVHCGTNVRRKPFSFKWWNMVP

SMILES	kinact/KI (PAD2)	Fold PAD2 Selectivity (PAD2)	kinact/KI (PAD3)	Fold PAD3 Selectivity (PAD3)	kinact/KI (PAD4)	Fold PAD4 Selectivity (PAD4)	kinact/KI (PAD1)	Fold PAD1 Selectivity (PAD1)	pKi (PAD2)	kinact (PAD2)
Cn1c([C@H](CCCNC(=N)CCl)NC(=O)c2ccccc2C(=O)O)nc2ccccc21 [Compound 6d, N1-(2-Carboxyl)benzoyl-N5-(2-chloro-1-iminoethyl)-1-(1-methyl-benzo[d]imidazol-2-yl)-L-ornithine]	240 M⁻¹ s⁻¹	1.9 fold	125 M⁻¹ s⁻¹	1.0 fold	130 M⁻¹ s⁻¹	1.0 fold	537 M⁻¹ s⁻¹	4.3 fold	–	–
N=C(CCl)NCCC[C@H](NC(=O)c1ccc(-c2ccc(F)cc2)cc1)c1nc2ccccc2[nH]1 [Compound 5p, N1-4′-F-[1,1′-Phenyl]benzol-N5-(2-chloro-1-iminoethyl)-1-(1H-benzo[d]imidazol-2-yl)-L-ornithine]	91.7 M⁻¹ s⁻¹	1.0 fold	176 M⁻¹ s⁻¹	1.9 fold	280 M⁻¹ s⁻¹	3.1 fold	343 M⁻¹ s⁻¹	3.7 fold	–	–
CCn1c([C@H](CCCNC(=N)CCl)NC(=O)c2ccccc2C(=O)O)nc2ccccc21 [Compound 6f, N1-(2-Carboxyl)benzoyl-N5-(2-chloro-1-iminoethyl)-1-(1-ethyl-benzo[d]imidazol-2-yl)-L-ornithine]	290 M⁻¹ s⁻¹	1.6 fold	183 M⁻¹ s⁻¹	1.0 fold	228 M⁻¹ s⁻¹	1.2 fold	785 M⁻¹ s⁻¹	4.3 fold	–	–
COc1cccc2c1nc([C@H](CCCNC(=N)CCl)NC(=O)c1ccc(-c3ccccc3)cc1)n2C [Compound 5n, N1-[1,4′-Phenyl]benzoyl-N5-(2-chloro-1-iminoethyl)-1-(4-methoxy-1-methyl-benzo[d]imidazol-2-yl)-L-ornithine]	463 M⁻¹ s⁻¹	5.1 fold	91.7 M⁻¹ s⁻¹	1.0 fold	132 M⁻¹ s⁻¹	1.4 fold	580 M⁻¹ s⁻¹	6.3 fold	–	–
N=C(CCl)NCCC[C@H](NC(=O)c1ccccc1C(=O)O)c1nc2ccccc2[nH]1 [Compound 6b, N1-(2-Carboxyl)benzol-N5-(2-chloro-1-iminoethyl)-1-(1H-benzo[d]imidazol-2-yl)-L-omithine]	57.5 M⁻¹ s⁻¹	1.0 fold	354 M⁻¹ s⁻¹	6.2 fold	517 M⁻¹ s⁻¹	9.0 fold	475 M⁻¹ s⁻¹	8.3 fold	–	–
N=C(CF)NCCC[C@H](NC(=O)c1ccc(-c2ccccc2)cc1)c1nc2cc(F)c(F)cc2[nH]1 [Compound 5q, N1-[1,1′-Phenyl]benzoyl-N5-(2-fluoro-1-iminoethyl)-1-(5,6-difluoro-1H-benzo[d]imidazol-2-yl)-L-ornithine]	26.2 M⁻¹ s⁻¹	1.0 fold	25.5 M⁻¹ s⁻¹	1.0 fold	60 M⁻¹ s⁻¹	2.4 fold	31 M⁻¹ s⁻¹	1.2 fold	–	–
CC(C)n1c([C@H](CCCNC(=N)CF)NC(=O)c2ccc(-c3ccccc3)cc2)nc2ccccc21 [Compound 5k, N1-[1,4′-Phenyl]benzoyl-N5-(2-fluoro-1-iminoethyl)-1-(1-isopropyl-benzo[d]imidazol-2-yl)-L-ornithine]	11.3 M⁻¹ s⁻¹	34 fold	28.3 M⁻¹ s⁻¹	85 fold	0.333 M⁻¹ s⁻¹	1.0 fold	0.333 M⁻¹ s⁻¹	1.0 fold	–	–

Now from value to compound:

kinact/KI (PAD2)	Fold PAD2 Selectivity (PAD2)	kinact/KI (PAD3)	Fold PAD3 Selectivity (PAD3)	kinact/KI (PAD4)	Fold PAD4 Selectivity (PAD4)	kinact/KI (PAD1)	Fold PAD1 Selectivity (PAD1)	pKi (PAD2)	kinact (PAD2)	SMILES
152 M⁻¹ s⁻¹	7.0 fold	78.3 M⁻¹ s⁻¹	3.6 fold	21.7 M⁻¹ s⁻¹	1.0 fold	200 M⁻¹ s⁻¹	9.3 fold	–	–	CCn1c([C@H](CCCNC(=N)CCl)NC(=O)c2ccccc2C(=O)OC(C)(C)C)nc2ccccc21 [Compound 9d, N1-(2-tert-butylcarboxy)benzoyl-N5-(2-chloro-1-iminoethyl)-1-(1-ethyl-benzo[d]imidazol-2-yl)-L-ornithine]
590 M⁻¹ s⁻¹	9.1 fold	267 M⁻¹ s⁻¹	4.1 fold	64.8 M⁻¹ s⁻¹	1.0 fold	504 M⁻¹ s⁻¹	7.8 fold	–	–	CCN1Cc2cccc(C(=O)N[C@@H](CCCNC(=N)CCl)c3nc4cc(OC)ccc4[nH]3)c2C1=O [Compound 8x, N1-(2-ethyl-3-oxoisoindoline)benzoyl-N5-(2-chloro-1-iminoethyl)-1-(5-methoxy-1H-benzo[d]imidazol-2-yl)-L-ornithine]
845 M⁻¹ s⁻¹	32 fold	26.7 M⁻¹ s⁻¹	1.0 fold	26.3 M⁻¹ s⁻¹	1.0 fold	998 M⁻¹ s⁻¹	38 fold	–	–	CCn1c([C@H](CCCNC(=N)CF)NC(=O)c2cccc3c2C(=O)NC3)nc2c(OC)cccc21 [Compound 7q, N1-(3-oxoisoindoline)benzoyl-N5-(2-fluoro-1-iminoethyl)-1-(4-methoxy-1-ethyl-benzo[d]imidazol-2-yl)-L-ornithine]
2230 M⁻¹ s⁻¹	125 fold	17.8 M⁻¹ s⁻¹	1.0 fold	68.3 M⁻¹ s⁻¹	3.8 fold	842 M⁻¹ s⁻¹	47 fold	4.73	0.0417 s⁻¹	CCN1Cc2cccc(C(=O)N[C@@H](CCCNC(=N)CF)c3nc4cc(OC)ccc4n3C)c2C1=O [Compound 8o, N1-(2-ethyl-3-oxoisoindoline)benzoyl-N5-(2-fluoro-1-iminoethyl)-1-(5-methoxy-1-methyl-benzo[d]imidazol-2-yl)-L-ornithine]
1200 M⁻¹ s⁻¹	30 fold	108 M⁻¹ s⁻¹	2.7 fold	40.2 M⁻¹ s⁻¹	1.0 fold	982 M⁻¹ s⁻¹	24 fold	–	–	CCOc1cccc2c1nc([C@H](CCCNC(=N)CCl)NC(=O)c1cccc3c1C(=O)NC3)n2C [Compound 7n]
415 M⁻¹ s⁻¹	5.4 fold	76.2 M⁻¹ s⁻¹	1.0 fold	264 M⁻¹ s⁻¹	3.5 fold	974 M⁻¹ s⁻¹	13 fold	–	–	COc1ccc2[nH]c([C@H](CCCNC(=N)CF)NC(=O)c3cccc4c3C(=O)NC4)nc2c1 [Compound 7s, N1-(3-oxoisoindoline)benzoyl-N5-(2-fluoro-1-iminoethyl)-1-(5-methoxy-1H-benzo[d]imidazol-2-yl)-L-ornithine]
1570 M⁻¹ s⁻¹	95 fold	20 M⁻¹ s⁻¹	1.2 fold	16.5 M⁻¹ s⁻¹	1.0 fold	1070 M⁻¹ s⁻¹	65 fold	4.26	0.0868 s⁻¹	CCOc1cccc2c1nc([C@H](CCCNC(=N)CF)NC(=O)c1cccc3c1C(=O)NC3)n2C [Compound 7m]
958 M⁻¹ s⁻¹	6.7 fold	158 M⁻¹ s⁻¹	1.1 fold	143 M⁻¹ s⁻¹	1.0 fold	674 M⁻¹ s⁻¹	4.7 fold	–	–	COc1cccc2c1nc([C@H](CCCNC(=N)CCl)NC(=O)c1cccc3c1C(=O)N(C1CC1)C3)n2C [Compound 8t]
